According to patent US7491501B2, “Methods for identifying modulators of intracellular aggregate formation” (Auburn University, priority 2003, dated 2009):

System: 26S proteasome
Assay: In vitro deubiquitination assay of K63 polyubiquitinated tau with 26S proteasome
Format: biochemical
Settings: Ub-H 1 or 10 μM, 26S proteasome 40 or 80 nM, 2 h 37° C.
Method: In Vitro Ubiquitination and Deubiquitination Assay—His-tagged tau construct was expressed in HEK 293 cells by calcium phosphate method. The cells were collected, washed with PBS and lysed with SDS lysis buffer. The lysate was immunoprecipitated with tau antibody and bound to secondary antibody coupled with agarose beads. Fifty microliters of the reaction buffer (50 mM Tris pH 7.5, 2.5 mM MgCl2, 2 mM DTT, 2 mM ATP) containing 100 ng El, 200 ng UbcH7 (E2), 100 μg TRAF6 (E3) and 5 μg of GST-WT Ub, or its mutants K29R, K48R, and K63R Ub was added to the immunoprecipitated tau. The beads were incubated at 37° C. for 2 h by continuous shaking, then washed three times with reaction buffer. The proteins were released by boiling for 2 min in SDS-PAGE sample buffer, electrophoresed on 7.5% SDS-PAGE and western blotted with antibody to ubiquitin and tau. For the in vitro deubiquitination assay, the ubiquitinated tau was treated with 26S proteasome (40 or 80 nM) in 30 μl of buffer containing 50 mM Tris-HCl, pH 7.5, 2 mM MgCl2, 2 mM ATP for 2 h at 37° C. The deubiquitination of tau by the 26S proteasome was blocked by the addition of ubiquitin aldehyde (Ub-H), an inhibitor of ubiquitin isopeptidases (1 or 10 μM). The samples were boiled in sample buffer, resolved by 7.5% SDS-PAGE and western blotted with anti-ubiquitin or anti-tau. […]

**Q.** For ubiquitin aldehyde [Ub-H], which “polyubiquitin degradation (deubiquitination of tau) by 26S proteasome” value is on record?
**A.** inhibited
